Measured values taken from PMC6220272, “Scaffold-Hopping from Synthetic Drugs by Holistic Molecular Representation” (Scientific Reports, 2018).

Columns and labels:
Format in all cases: cell-based
PPARα = biological target: T1, PPARα (Homo sapiens, UniProt Q07869); test: Gal4 hybrid reporter gene assay PPARα (selectivity profiling)
T1 construct: expressed in transfected cells; host or cells: HEK293T
T1 sequence (Q07869 239-466 limits assumed): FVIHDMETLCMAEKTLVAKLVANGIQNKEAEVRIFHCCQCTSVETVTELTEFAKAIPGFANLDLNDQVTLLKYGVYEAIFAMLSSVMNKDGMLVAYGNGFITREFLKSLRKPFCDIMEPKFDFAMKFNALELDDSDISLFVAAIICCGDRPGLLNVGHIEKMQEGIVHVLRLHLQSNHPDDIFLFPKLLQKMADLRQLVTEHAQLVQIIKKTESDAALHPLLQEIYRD
Protocol: (§1) Moreover, 7 was characterized for its ability to modulate RXR target gene expression under more physiological conditions. Hepatoma cells (HepG2) were incubated with 7 (30 µM) or reference RXR agonist bexarotene (9, 1 µM) for eight hours and mRNA expression of RXR regulated genes ATP-binding cassette transporter A1 (ABCA1), angiopoietin like protein 4 (ANGPTL4) and apolipoprotein E (ApoE) was analysed by quantitative real-time PCR.
(§2) The Gal4 hybrid reporter gene assays were conducted as reported previously[39]–[41]. pFA-CMV-based constructs comprising the ligand binding domain of the human nuclear receptor in question were used as expression plasmids for the chimera receptors. pFR-Luc (Stratagene) served as reporter plasmid and pRL-SV40 (Promega) for normalization of transfection efficiency and cell growth. The assays were conducted in 96-well format in HEK293T cells that were cultured as described previously[39]–[41]. Transient transfection was carried out using Lipofectamine LTX reagent (Invitrogen) according to the manufacturer’s protocol. After transfection and incubation with test compounds (12–14 h), cells were assayed for luciferase activity using Dual-Glo™ Luciferase Assay System (Promega) according to the manufacturer’s protocol. Luminescence was measured with an Infinite M200 luminometer (Tecan Deutschland GmbH). […]

PPARγ = biological target: T2, PPARγ (Homo sapiens, UniProt P37231); test: Gal4 hybrid reporter gene assay PPARγ (selectivity profiling)
T2 construct: expressed in transfected cells; host or cells: HEK293T
T2 sequence (P37231 238-503 limits assumed): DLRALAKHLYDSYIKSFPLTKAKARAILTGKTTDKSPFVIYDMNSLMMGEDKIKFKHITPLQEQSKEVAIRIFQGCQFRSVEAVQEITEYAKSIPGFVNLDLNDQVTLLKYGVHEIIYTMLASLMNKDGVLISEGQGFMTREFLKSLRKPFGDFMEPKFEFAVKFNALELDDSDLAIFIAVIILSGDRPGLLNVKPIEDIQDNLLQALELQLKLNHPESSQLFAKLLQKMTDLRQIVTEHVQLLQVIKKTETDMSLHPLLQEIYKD
Protocol: as §1, §2

HepG2 cells = test: Toxicity assay (WST-1, water-soluble tetrazolium assay); conditions: WST-1, HepG2 cells, 48 h
Protocol: WST-1 assay (Roche Diagnostics International AG, Rotkreuz, Schweiz) was performed according to manufacturer’s protocol in HepG2 cells. Cells were incubated with the test compounds (final concentrations: 1 µM, 10 µM, 30 µM, 50 µM and 100 µM) in DMEM/1% DMSO, and DMEM/1% DMSO as negative control. After 48 h, WST reagent (Roche Diagnostics International AG) was added to each well according to manufacturer’s instructions. After 45 min incubation, absorption (450 nm/reference: 620 nm) was determined with a Tecan Infinite M200 (Tecan Deutschland GmbH). Each experiment was set up in duplicates and repeated in four independent experiments. Results are expressed as mean ± SEM% of DMSO (0.1%) control.

[1] = biological target: T3, constitutive androstane receptor [CAR] (Homo sapiens, UniProt Q14994); test: Gal4 hybrid reporter gene assay CAR (selectivity profiling)
T3 construct: expressed in transfected cells; host or cells: HEK293T
T3 sequence (Q14994 109-352 limits assumed): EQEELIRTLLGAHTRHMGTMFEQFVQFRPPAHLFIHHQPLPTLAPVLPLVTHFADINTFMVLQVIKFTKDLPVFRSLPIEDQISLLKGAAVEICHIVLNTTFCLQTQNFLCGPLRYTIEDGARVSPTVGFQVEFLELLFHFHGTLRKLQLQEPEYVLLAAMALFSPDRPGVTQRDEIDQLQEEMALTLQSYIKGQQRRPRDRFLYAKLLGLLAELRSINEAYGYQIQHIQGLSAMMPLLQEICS
Protocol: as §1, §2

[2] = biological target: T4, human RXRγ ligand binding domain (Gal4 hybrid receptor) (Homo sapiens, UniProt P48443); test: Gal4 hybrid reporter gene assay RXRγ; conditions: HEK293T cells, n ≥ 4, read-out: RXRγ EC50 ± SEM
T4 construct: expressed in transfected cells; host or cells: HEK293T
T4 sequence (P48443 231-459 limits assumed): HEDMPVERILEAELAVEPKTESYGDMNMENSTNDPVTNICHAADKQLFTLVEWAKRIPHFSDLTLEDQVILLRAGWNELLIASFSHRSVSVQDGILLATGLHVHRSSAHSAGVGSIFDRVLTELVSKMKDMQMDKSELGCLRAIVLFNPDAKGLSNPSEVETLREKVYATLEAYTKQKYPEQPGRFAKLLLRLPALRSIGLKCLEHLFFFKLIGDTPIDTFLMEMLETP
Protocol: The 20 top-ranked synthetic compounds were selected and tested in vitro for their modulatory activity on RXR (Supplementary Table 1). Compounds were tested in specific hybrid reporter gene assays for RXRα, RXRβ and RXRγ modulation[39]–[41]. These assays rely on a constitutively expressed hybrid receptor composed of the respective human RXR ligand binding domain and the DNA binding domain of the Gal4 receptor from yeast. A Gal4 responsive firefly luciferase was used as reporter gene and constitutively expressed renilla luciferase served as internal control for transfection efficiency and test compound toxicity. All selected compounds were tested at 50 µM concentration on RXRα and for active compounds (Supplementary Fig. 1), dose response curves were recorded on all three RXR subtypes.
The Gal4 hybrid reporter gene assays were conducted as reported previously[39]–[41]. pFA-CMV-based constructs comprising the ligand binding domain of the human nuclear receptor in question were used as expression plasmids for the chimera receptors. pFR-Luc (Stratagene) served as reporter plasmid and pRL-SV40 (Promega) for normalization of transfection efficiency and cell growth. The assays were conducted in 96-well format in HEK293T cells that were cultured as described previously[39]–[41]. Transient transfection was carried out using Lipofectamine LTX reagent (Invitrogen) according to the manufacturer’s protocol. After transfection and incubation with test compounds (12–14 h), cells were assayed for luciferase activity using Dual-Glo™ Luciferase Assay System (Promega) according to the manufacturer’s protocol. Luminescence was measured with an Infinite M200 luminometer (Tecan Deutschland GmbH). All hybrid assays were validated with reference agonists (PPARα: GW7647; PPARγ: pioglitazone; PPARδ: L165,041; LXRα/β: T0901317; FXR: GW4064; RXRs: bexarotene; RARs: tretinoin; VDR: calcitriol; CAR: CITCO; PXR: SR12813) which yielded EC50 values in agreement with literature. The assays were conducted in duplicates with at least two independent repeats and for active compounds repeated without hybrid receptor coding DNA for every test compound at the highest tested concentration to exclude unspecific effects.
Supplementary Figure 2. Dose-response curves for RXRα activation. Compounds were tested in specific hybrid reporter gene assays for RXRα, RXRβ and RXRγ modulation.^1–3 These assays rely on a constitutively expressed hybrid receptor composed of the respective human RXR ligand binding domain and the DNA binding domain of the Gal4 receptor from yeast. A Gal4 responsive firefly luciferase was used as reporter gene and constitutively expressed renilla luciferase served as internal control for transfection efficiency and test compound toxicity. […]

CC(C)(C)c1cc(/C=N/NC(=O)c2ccc(N)cc2)cc(C(C)(C)C)c1 [Compound 7]
activity on PPARα (PPARα): no activity | activity on PPARγ (PPARγ): no activity | concentration up to which no cytotoxic effect was seen (HepG2 cells): > 100 µM | activity on CAR [1]: no activity | EC50 [2]: 28.2 ± 0.1 µM
